Results taken from PubChem BioAssay AID2061108 (Research group of Professor Matthew Todd, School of …, 2025).

tested on: C. albicans NCPF 3281 growth inhibition, 100 uM; assay: microbial growth inhibition plus red cell haemolysis – Idler compounds, first plate, PMBN-permeabilized strains, profiling panel (AID 2061108); conditions: S. aureus ATCC 9144 growth inhibition; measured here: C. albicans NCPF 3281; at 100 µM; stronger effect = higher value

SMILES | inhibition [%]
N#Cc1c(Cl)nc2ccccc2c1C(F)(F)F | -47.1
CC(=O)NCCC(=O)NNC(=O)c1cc(-c2ccccn2)nc2ccccc12 | -14.4
COc1cc(OC)cc(C2(NC(=O)c3ccc(N4CCOCC4)cc3)COC2)c1 | -72
N#Cc1ccc(NC2Cc3cccc(O)c3C2)cc1Cl (stereo not drawn) | 100
CCn1c(SCC(=O)N(C)c2ccccc2)nnc1-c1cn(C)nc1OC | 8.04
O=S(=O)(Nc1ccc(Oc2ccccc2)cc1)c1cccc(C(F)(F)F)c1 | 25.3
Oc1ccc(CN2CCN(c3ccccc3F)CC2)c2cccnc12 | 95.2
O=C(NC1(c2ccc(Cl)cc2)COC1)c1ccc(N2CCCCC2)cc1 | -54.3
COc1cc2nc(Nc3cc(C)[nH]n3)nc(Nc3cc(C)[nH]n3)c2cc1OC | 84.2
O=C(N/N=C/C1CCOCC1)c1ccncc1 | -26.5
O=C(NC1(c2ccc(Br)cc2)COC1)c1ccc(N2CCOCC2)cc1 | -56.4
O=S(=O)(F)c1ncc(Cl)cc1Br | -41.4
O=S(=O)(F)c1cccc(NCc2ccc(F)cc2)n1 | -98.2
C=CC(=O)N1CCC[C@H](CC(=O)O)C1 | -64.4
O=C(NCCn1ccc2ccccc21)Nc1c[nH]c2ccccc12 | -13.8
COc1cc2nc(NCCCN(C)C)nc(N3CC(N(C)C)C3)c2cc1OC | -118
CS(=O)(=O)CCCNC[C@@H](O)c1ccccc1 | -65.9
COc1ccc(-c2nc(N3CCC(N(C)C)C3)c3cc(OC)c(OC)cc3n2)cc1 (stereo not drawn) | 2.3
O=C(Nc1ccc(-c2nn[nH]n2)cc1)c1ccc(Oc2ccccc2)cc1 | -19.7
O=C(N/N=C/c1ccncc1O)c1ccncc1 | 79.2
CN(C)C(=O)c1cncc(-c2cccc(C3(C#N)CC3)c2)c1 | -67.1

tested on: E. coli NCTC 12923 + PMBN growth inhibition, 100 uM; assay: as above; conditions: S. aureus ATCC 9144 growth inhibition; measured here: E. coli plus PMBN; at 100 µM; stronger effect = higher value

SMILES | inhibition [%]
COc1cc2nc(Nc3cc(C)[nH]n3)nc(NC3CCN(C(=O)OC(C)(C)C)CC3)c2cc1OC | 78.8
N#Cc1c(N2C[C@@H](CC(N)=O)[C@H](O)C2)nc2ccccc2c1C(F)(F)F | 11.6
CCC(C)C(N)C(=O)NS(=O)(=O)c1cccc(-c2cc3ncnc(N)c3s2)c1 (stereo not drawn) | -27.4
COc1ccc2c(c1)nc(-c1c[nH]c3cc(N4CCOCC4)ccc13)c1[nH]ccc12 | 98.5
CC(N)C(=O)NS(=O)(=O)c1cccc(-c2cc3ncnc(N)c3s2)c1 (stereo not drawn) | -31.8
O=C(Nc1ccc(OC2CCCCC2)cc1)c1ccc(-c2nn[nH]n2)cc1 | 6.17
Nc1ncnc2cc(-c3cccc(S(=O)(=O)NC(=O)C4CCCN4)c3)sc12 (stereo not drawn) | -40.7
N#Cc1c(Cl)nc2ccccc2c1C(F)(F)F | -1.22
CC(=O)NCCC(=O)NNC(=O)c1cc(-c2ccccn2)nc2ccccc12 | -9.76
COc1cc(OC)cc(C2(NC(=O)c3ccc(N4CCOCC4)cc3)COC2)c1 | 0.123
N#Cc1ccc(NC2Cc3cccc(O)c3C2)cc1Cl (stereo not drawn) | 101
CCn1c(SCC(=O)N(C)c2ccccc2)nnc1-c1cn(C)nc1OC | -23.5
O=S(=O)(Nc1ccc(Oc2ccccc2)cc1)c1cccc(C(F)(F)F)c1 | 90
Oc1ccc(CN2CCN(c3ccccc3F)CC2)c2cccnc12 | 6.46
O=C(NC1(c2ccc(Cl)cc2)COC1)c1ccc(N2CCCCC2)cc1 | -14
COc1cc2nc(Nc3cc(C)[nH]n3)nc(Nc3cc(C)[nH]n3)c2cc1OC | 49.1
O=C(N/N=C/C1CCOCC1)c1ccncc1 | 1.11
O=C(NC1(c2ccc(Br)cc2)COC1)c1ccc(N2CCOCC2)cc1 | 4.32
O=S(=O)(F)c1ncc(Cl)cc1Br | -23.7
O=S(=O)(F)c1cccc(NCc2ccc(F)cc2)n1 | 0.494
C=CC(=O)N1CCC[C@H](CC(=O)O)C1 | 5.85
O=C(NCCn1ccc2ccccc21)Nc1c[nH]c2ccccc12 | 8.41
COc1cc2nc(NCCCN(C)C)nc(N3CC(N(C)C)C3)c2cc1OC | 2.07
CS(=O)(=O)CCCNC[C@@H](O)c1ccccc1 | 1.22
COc1ccc(-c2nc(N3CCC(N(C)C)C3)c3cc(OC)c(OC)cc3n2)cc1 (stereo not drawn) | -11
O=C(Nc1ccc(-c2nn[nH]n2)cc1)c1ccc(Oc2ccccc2)cc1 | 17.2
O=C(N/N=C/c1ccncc1O)c1ccncc1 | 1.36
CN(C)C(=O)c1cncc(-c2cccc(C3(C#N)CC3)c2)c1 | -3.05

tested on: E. coli NCTC 12923 growth inhibition, 100 uM; assay: as above; conditions: E. coli NCTC 12923 growth inhibition, 100 µM; stronger effect = higher value

SMILES | inhibition [%]
COc1cc2nc(Nc3cc(C)[nH]n3)nc(NC3CCN(C(=O)OC(C)(C)C)CC3)c2cc1OC | 14.5
N#Cc1c(N2C[C@@H](CC(N)=O)[C@H](O)C2)nc2ccccc2c1C(F)(F)F | 0.811
CCC(C)C(N)C(=O)NS(=O)(=O)c1cccc(-c2cc3ncnc(N)c3s2)c1 (stereo not drawn) | -29.6
COc1ccc2c(c1)nc(-c1c[nH]c3cc(N4CCOCC4)ccc13)c1[nH]ccc12 | 14.1
CC(N)C(=O)NS(=O)(=O)c1cccc(-c2cc3ncnc(N)c3s2)c1 (stereo not drawn) | -32.4
O=C(Nc1ccc(OC2CCCCC2)cc1)c1ccc(-c2nn[nH]n2)cc1 | 1.08
Nc1ncnc2cc(-c3cccc(S(=O)(=O)NC(=O)C4CCCN4)c3)sc12 (stereo not drawn) | -67.2
N#Cc1c(Cl)nc2ccccc2c1C(F)(F)F | -10
CC(=O)NCCC(=O)NNC(=O)c1cc(-c2ccccn2)nc2ccccc12 | -5.54
COc1cc(OC)cc(C2(NC(=O)c3ccc(N4CCOCC4)cc3)COC2)c1 | 0.541
N#Cc1ccc(NC2Cc3cccc(O)c3C2)cc1Cl (stereo not drawn) | 25
CCn1c(SCC(=O)N(C)c2ccccc2)nnc1-c1cn(C)nc1OC | -41.1
O=S(=O)(Nc1ccc(Oc2ccccc2)cc1)c1cccc(C(F)(F)F)c1 | -5.41
Oc1ccc(CN2CCN(c3ccccc3F)CC2)c2cccnc12 | -2.43
